The values below come from article PMC10805714, “Functionally-selective inhibition of threshold sodium currents and excitability in dorsal root ganglion neurons by cannabinol” (Communications Biology, 2024).

pIC50: −log10 of the molar value.

One test addresses T1, Nav1.7-P610T (Homo sapiens, UniProt Q15858, P610T).
T1 construct: gene SCN9A; P610T plasmid transfected in HEK293 cells
The experiment in a line: automated patch-clamp, steady-state inactivation shift with […] s pre-pulse. It is filed as cell-based.

The target of the next test is T2, Nav1.7 (Homo sapiens, UniProt Q15858).
T2 construct: gene SCN9A; human Nav1.7 stably expressed in HEK293 cells; with SCN1B (human, co-transfected)
T2 sequence (Q15858 whole entry): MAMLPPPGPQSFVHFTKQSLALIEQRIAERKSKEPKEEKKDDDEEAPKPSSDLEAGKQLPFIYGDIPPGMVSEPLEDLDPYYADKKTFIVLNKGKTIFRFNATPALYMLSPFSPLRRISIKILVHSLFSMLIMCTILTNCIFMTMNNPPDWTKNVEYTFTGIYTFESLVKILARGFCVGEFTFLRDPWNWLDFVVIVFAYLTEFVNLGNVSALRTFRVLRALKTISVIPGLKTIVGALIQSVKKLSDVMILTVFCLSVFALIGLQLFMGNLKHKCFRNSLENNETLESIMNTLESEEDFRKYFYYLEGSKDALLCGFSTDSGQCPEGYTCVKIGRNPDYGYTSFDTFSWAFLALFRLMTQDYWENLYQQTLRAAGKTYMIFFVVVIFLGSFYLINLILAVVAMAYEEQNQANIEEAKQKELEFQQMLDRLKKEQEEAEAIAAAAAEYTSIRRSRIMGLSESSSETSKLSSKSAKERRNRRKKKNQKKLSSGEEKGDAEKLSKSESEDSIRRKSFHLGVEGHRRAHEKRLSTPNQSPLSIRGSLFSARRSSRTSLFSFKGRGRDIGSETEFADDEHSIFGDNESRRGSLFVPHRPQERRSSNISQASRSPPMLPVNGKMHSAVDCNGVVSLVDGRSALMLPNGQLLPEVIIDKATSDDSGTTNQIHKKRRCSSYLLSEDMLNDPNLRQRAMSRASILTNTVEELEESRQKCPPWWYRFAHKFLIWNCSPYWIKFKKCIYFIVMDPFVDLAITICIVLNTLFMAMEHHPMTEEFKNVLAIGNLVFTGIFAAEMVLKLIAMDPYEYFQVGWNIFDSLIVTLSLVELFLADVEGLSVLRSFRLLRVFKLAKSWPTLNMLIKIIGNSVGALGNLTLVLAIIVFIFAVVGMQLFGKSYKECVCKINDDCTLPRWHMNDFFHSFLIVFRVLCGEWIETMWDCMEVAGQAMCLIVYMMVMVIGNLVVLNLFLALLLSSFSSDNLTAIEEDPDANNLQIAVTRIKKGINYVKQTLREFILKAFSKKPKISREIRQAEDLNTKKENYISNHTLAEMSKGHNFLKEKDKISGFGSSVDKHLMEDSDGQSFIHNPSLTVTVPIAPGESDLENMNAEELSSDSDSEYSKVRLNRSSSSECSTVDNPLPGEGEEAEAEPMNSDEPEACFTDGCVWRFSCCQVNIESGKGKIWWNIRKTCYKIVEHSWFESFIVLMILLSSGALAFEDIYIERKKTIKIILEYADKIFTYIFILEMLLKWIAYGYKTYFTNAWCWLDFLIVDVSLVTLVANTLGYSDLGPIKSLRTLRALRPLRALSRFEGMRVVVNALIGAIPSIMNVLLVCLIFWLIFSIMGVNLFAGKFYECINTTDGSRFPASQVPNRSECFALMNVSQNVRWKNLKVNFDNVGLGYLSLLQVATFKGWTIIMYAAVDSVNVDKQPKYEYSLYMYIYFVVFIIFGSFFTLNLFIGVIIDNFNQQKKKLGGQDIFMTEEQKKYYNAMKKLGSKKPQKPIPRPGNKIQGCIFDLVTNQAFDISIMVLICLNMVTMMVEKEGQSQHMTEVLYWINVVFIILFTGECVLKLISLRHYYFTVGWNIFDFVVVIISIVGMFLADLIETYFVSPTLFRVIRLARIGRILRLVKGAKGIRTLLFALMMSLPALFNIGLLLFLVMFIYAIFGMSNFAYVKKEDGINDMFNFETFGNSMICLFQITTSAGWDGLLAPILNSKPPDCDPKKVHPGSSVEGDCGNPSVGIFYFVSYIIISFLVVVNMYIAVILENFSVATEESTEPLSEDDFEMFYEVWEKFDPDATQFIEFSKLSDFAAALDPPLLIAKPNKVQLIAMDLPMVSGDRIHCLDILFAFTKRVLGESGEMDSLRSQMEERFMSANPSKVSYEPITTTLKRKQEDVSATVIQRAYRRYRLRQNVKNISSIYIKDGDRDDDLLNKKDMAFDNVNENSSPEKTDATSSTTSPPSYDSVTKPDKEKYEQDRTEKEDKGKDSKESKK
T2 sequence (Q07699 19-218 partner): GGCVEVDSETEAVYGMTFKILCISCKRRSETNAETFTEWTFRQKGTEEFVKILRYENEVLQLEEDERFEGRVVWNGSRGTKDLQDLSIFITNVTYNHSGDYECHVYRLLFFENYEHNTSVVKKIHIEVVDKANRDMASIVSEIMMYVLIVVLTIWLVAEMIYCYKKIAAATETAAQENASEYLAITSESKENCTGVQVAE
Nature of the test: automated whole-cell patch-clamp (Qube-384), IC50 at -90 mV holding-potential. It counts as cell-based.

T1 sequence (Q15858 whole entry P610T): as the sequence (Q15858 whole entry) above, with P610T counted along it

Turning to `CCCCCc1cc(O)c2c(c1)OC(C)(C)c1ccc(C)cc1-2` [CBN, Cannabinol], at Nav1.7-P610T, the “automated patch-clamp, steady-state inactivation shift with 5 s pre-pulse” value is “CBN hyperpolarized the SSI curves in both WT and P610T (Fig. S1)”. The same compound had a pIC50 against Nav1.7 of 4.97.
